In publication PMC2919490 (Journal of agricultural and food chemistry, 2010):
Where two headings read alike, the source gives them in different places. Each block holds one molecule with its values, some of them ahead of it.

Columns and labels:
Caco-2 cells [1] = experiment: Marker compounds hydrolysis and metabolism in Caco-2 transport study; format: in vitro ADME, human; conditions: Caco-2 transport studies; for glucuronidation and sulfation metabolites: UPLC-MS/MS, of marker compounds and their aglycone; for hydrolysis to aglycone: aglycone by UPLC-MS/MS
[2] = especially under light exposure; cited from earlier work
Caco-2 cells [3] = conditions: cited from earlier work
[4] = Stability of transport study solutions in HBSS at 37 °C; format: physicochemical; conditions: HBSS pH 6.8, 37 °C water bath, 0, 1, 2, 4 and 6 hour, UPLC-MS/MS
MRP2 = MRP2 (Homo sapiens, UniProt Q92887); experiment: Caco-2 transport of isoquercitrin in the presence of MRP2 inhibitor MK 571; format: in vitro ADME
Chain of MRP2 (Q92887 whole entry): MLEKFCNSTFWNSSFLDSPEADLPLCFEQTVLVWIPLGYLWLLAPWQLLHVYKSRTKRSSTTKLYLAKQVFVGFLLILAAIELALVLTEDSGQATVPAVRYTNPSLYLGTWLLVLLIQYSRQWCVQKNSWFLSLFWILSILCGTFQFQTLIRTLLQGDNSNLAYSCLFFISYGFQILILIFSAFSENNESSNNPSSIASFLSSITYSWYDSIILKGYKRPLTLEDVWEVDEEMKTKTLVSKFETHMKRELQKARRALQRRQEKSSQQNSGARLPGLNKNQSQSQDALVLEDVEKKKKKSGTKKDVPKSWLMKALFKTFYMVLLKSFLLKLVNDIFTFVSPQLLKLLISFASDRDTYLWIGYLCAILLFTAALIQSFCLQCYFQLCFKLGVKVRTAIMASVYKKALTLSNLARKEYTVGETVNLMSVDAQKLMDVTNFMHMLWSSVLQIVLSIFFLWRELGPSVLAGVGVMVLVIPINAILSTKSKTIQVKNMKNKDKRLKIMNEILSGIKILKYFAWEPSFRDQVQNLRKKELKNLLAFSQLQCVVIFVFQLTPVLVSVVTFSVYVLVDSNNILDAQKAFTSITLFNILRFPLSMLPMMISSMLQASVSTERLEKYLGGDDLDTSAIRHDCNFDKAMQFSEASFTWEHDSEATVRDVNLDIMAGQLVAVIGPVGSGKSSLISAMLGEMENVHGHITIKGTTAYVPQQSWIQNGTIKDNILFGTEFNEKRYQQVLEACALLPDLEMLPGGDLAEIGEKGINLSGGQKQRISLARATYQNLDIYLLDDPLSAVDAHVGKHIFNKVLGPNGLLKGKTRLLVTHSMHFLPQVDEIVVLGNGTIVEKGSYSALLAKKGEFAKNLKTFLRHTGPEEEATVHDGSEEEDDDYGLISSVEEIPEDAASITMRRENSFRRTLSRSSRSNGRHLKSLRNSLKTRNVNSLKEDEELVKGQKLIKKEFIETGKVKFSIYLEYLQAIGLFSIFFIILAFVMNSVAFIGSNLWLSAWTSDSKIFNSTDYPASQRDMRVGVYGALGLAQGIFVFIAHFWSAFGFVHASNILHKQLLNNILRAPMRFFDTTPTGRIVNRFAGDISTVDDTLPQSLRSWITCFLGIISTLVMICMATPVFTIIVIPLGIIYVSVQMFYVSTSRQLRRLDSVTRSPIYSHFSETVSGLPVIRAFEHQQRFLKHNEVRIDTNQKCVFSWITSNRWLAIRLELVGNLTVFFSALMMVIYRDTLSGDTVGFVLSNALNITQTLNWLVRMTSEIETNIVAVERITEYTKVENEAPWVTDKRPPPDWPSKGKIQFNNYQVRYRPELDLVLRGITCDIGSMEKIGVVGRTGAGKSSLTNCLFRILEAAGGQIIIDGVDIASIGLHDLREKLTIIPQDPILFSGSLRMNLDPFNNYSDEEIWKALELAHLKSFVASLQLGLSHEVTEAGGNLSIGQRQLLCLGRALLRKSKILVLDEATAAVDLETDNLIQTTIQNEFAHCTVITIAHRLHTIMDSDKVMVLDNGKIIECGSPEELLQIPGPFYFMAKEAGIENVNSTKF

[5] = format: in vitro ADME, human; conditions: human, Caco-2, pH 6.8, efflux ratio (Pba/Pab), vectorial transport ratio
Caco-2 cell monolayer = format: in vitro ADME, human; conditions: for Pa-b as percent of control: pH 6.8, 37 °C
SGLT1 = experiment: Caco-2 transport of isoquercitrin in the presence of phloridzin; format: in vitro ADME, human; conditions: pure isoquercitrin 10 μM, 50 μM phloridzin
[6] = isoquercitrin in product 2, 50 μM MK 571
[7] = isoquercitrin in product 4, 50 μM MK 571
[8] = pure isoquercitrin 10 μM, 50 μM MK 571 at apical side
[9] = in product 1 matrix, control pure compound 10 μM
[10] = in product 2 matrix, control pure compound 10 μM

glucuronidation and sulfation metabolites (Caco-2 cells [1]): not detected
hydrolysis to aglycone (Caco-2 cells [1]): not hydrolyzed
SMILES: C[C@@H]1O[C@@H](OC[C@H]2O[C@@H](Oc3c(-c4ccc(O)c(O)c4)oc4cc(O)cc(O)c4c3=O)[C@H](O)[C@@H](O)[C@@H]2O)[C@H](O)[C@H](O)[C@H]1O [rutin]

SMILES: Cc1cc(O)c2c(=O)c3c(O)cc(O)c4c5c(O)cc(O)c6c(=O)c7c(O)cc(C)c8c1c2c(c34)c(c78)c65 [hypericin]
stability in aqueous solutions [2]: highly unstable

SMILES: COc1ccc([C@@H]2CC(=O)c3c(O)cc(O[C@@H]4O[C@H](CO[C@@H]5O[C@@H](C)[C@H](O)[C@@H](O)[C@H]5O)[C@@H](O)[C@H](O)[C@H]4O)cc3O2)cc1O [hesperidin]
permeability (words) (Caco-2 cells [3]; HPLC-UV, 120 min transport): not permeable

SMILES: O=c1c(O[C@@H]2O[C@H](CO)[C@@H](O)[C@H](O)[C@H]2O)c(-c2ccc(O)c(O)c2)oc2cc(O)cc(O)c12 [isoquercitrin]
stability in experimental solutions (relative peak area as a function of time) [4]: stable
efflux ratio at 4 h (MRP2; human, Caco-2, with MK 571, 50 µM): 0.4
Pa-b change with MK 571 (MRP2; [6]): didn't increase significantly
Pb-a reduction with MK 571 (MRP2; [6]): 1.8 times
Pa-b increase with MK 571 (MRP2; [7]): 2.9 times
Pb-a change with MK 571 (MRP2; [7]): didn't change
Pb-a versus Pa-b (MRP2; [7]): not statistically different
vectorial transport ratio (MRP2; pure isoquercitrin 10 μM, 50 μM MK 571): 1
Pa-b increase compared with control (MRP2; [8]): 3.2 times
Pb-a decrease compared with control (MRP2; [8]): 5.2 times
glucuronidation and sulfation metabolites (Caco-2 cells [1]): not detected
hydrolysis to aglycone (Caco-2 cells [1]): not hydrolyzed
efflux ratio at 4 h, 10 µM [5]: 7.13
Pb-a as percent of control (Caco-2 cell monolayer; [9]): 78%
Pb-a as percent of control (Caco-2 cell monolayer; [10]): 42%
Pa-b increase compared to the control (SGLT1): 2.9 times
difference between Pa-b and Pb-a (SGLT1): diminished

SMILES: C[C@@H]1O[C@@H](O[C@H]2[C@H](Oc3cc(O)c4c(c3)O[C@H](c3ccc(O)cc3)CC4=O)O[C@H](CO)[C@@H](O)[C@@H]2O)[C@H](O)[C@H](O)[C@H]1O [naringin]
permeability (Caco-2 cells [3]; Caco-2): 8e-08 cm/s
permeability (words) (Caco-2 cells [3]; Caco-2): not permeable

efflux ratio (Pba/Pab) (Caco-2 cell monolayer; Caco-2, pH 6.8): 3.5
vectorial transport ratio (Caco-2 cell monolayer; human, Caco-2, 4 h, 50 µM, pH 6.8): 0.16
SMILES: C[C@H]1O[C@H](OC[C@H]2O[C@@H](Oc3c(-c4ccc(O)cc4)oc4cc(O)cc(O)c4c3=O)[C@H](O)[C@@H](O)[C@@H]2O)[C@@H](O)[C@@H](O)[C@@H]1O [kaempferol-3-rutinoside]

stability in experimental solutions (relative peak area as a function of time) [4]: stable
glucuronidation and sulfation metabolites (Caco-2 cells [1]): not detected
hydrolysis to aglycone (Caco-2 cells [1]): not hydrolyzed
Pa-b compared with control (Caco-2 cell monolayer; [9]): not altered
Pa-b as percent of control (Caco-2 cell monolayer; [10]): 54%
Pa-b as percent of control (Caco-2 cell monolayer; in product 4 matrix, control pure compound 10 μM): 46%
SMILES: O=c1c(O[C@@H]2O[C@H](CO)[C@H](O)[C@H](O)[C@H]2O)c(-c2ccc(O)c(O)c2)oc2cc(O)cc(O)c12 [hyperoside]
